{"source": "ChEMBL document CHEMBL5252531", "about": "“2015 Philip S. Portoghese Medicinal Chemistry Lectureship. Curing Hepatitis C Virus Infection with Direct-Acting Antiviral Agents: The Arc of a Medicinal Chemistry Triumph” (J Med Chem, 2016)", "key": {"Hepatitis C virus [1]": {"system": "Hepatitis C virus", "test": "Antiviral activity against HCV genotype 1a", "assay_type": "functional, organism-based, Hepacivirus hominis"}, "Hepatitis C virus [2]": {"system": "Hepatitis C virus", "test": "Antiviral activity against HCV genotype 1b", "assay_type": "functional, organism-based, Hepacivirus hominis"}, "[3]": {"test": "Half life in dog liver microsomes", "assay_type": "ADME, Canis lupus familiaris, Microsome"}, "[4]": {"target": "RNA-directed RNA polymerase (Hepacivirus hominis, UniProt O39930)", "sequence (O39930 whole entry)": "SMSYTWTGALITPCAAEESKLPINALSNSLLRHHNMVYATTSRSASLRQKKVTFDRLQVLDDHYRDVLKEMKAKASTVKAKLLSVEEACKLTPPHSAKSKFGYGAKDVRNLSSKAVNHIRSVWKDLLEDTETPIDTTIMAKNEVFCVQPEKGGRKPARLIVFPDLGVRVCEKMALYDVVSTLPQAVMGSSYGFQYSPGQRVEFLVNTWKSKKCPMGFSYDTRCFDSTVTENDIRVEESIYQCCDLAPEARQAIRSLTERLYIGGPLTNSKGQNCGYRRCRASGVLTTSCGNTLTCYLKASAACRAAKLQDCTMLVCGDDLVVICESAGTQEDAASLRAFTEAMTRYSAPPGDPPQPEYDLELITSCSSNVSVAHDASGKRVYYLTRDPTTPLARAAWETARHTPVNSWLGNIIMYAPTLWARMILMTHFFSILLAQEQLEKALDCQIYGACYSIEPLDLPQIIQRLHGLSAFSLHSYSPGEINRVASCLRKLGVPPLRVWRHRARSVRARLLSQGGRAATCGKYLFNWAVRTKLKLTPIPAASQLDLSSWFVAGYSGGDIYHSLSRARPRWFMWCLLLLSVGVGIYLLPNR", "test": "Inhibition of Hepatitis C virus NS5B polymerase"}, "[5]": {"target": "T1, Nuclear receptor subfamily 1 group I member 2 (Homo sapiens, UniProt O75469)", "T1 sequence (O75469 whole entry)": "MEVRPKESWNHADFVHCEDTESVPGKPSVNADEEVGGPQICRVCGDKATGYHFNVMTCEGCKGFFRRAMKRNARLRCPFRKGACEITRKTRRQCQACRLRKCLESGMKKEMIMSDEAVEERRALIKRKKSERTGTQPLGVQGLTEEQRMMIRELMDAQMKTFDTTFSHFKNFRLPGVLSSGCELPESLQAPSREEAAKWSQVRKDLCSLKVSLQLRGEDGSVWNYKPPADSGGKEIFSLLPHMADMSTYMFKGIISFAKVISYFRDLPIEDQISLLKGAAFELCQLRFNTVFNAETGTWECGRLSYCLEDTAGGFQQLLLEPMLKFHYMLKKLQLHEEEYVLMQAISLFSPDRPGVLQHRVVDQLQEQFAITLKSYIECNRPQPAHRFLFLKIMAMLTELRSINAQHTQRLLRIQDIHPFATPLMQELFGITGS", "test": "Inhibition of PXR (unknown origin)"}, "Hepatitis C virus [6]": {"system": "Hepatitis C virus", "test": "Antiviral activity against HCV GT1a-genotype assessed as inhibition of viral replication", "assay_type": "functional, organism-based, Hepacivirus hominis"}, "Hepatitis C virus [7]": {"system": "Hepatitis C virus", "test": "Antiviral activity against HCV GT1b-genotype assessed as viral growth inhibition measured after 24 hrs", "assay_type": "functional, organism-based, Hepacivirus hominis", "details": "Hepatitis C virus, GT1b-genotype, 24 h"}, "Hepatitis C virus [8]": {"system": "Hepatitis C virus", "test": "Antiviral activity against HCV genotype 1b Tyr93His mutant", "details": "Hepacivirus hominis"}, "Hepatitis C virus [9]": {"system": "Hepatitis C virus", "test": "Antiviral activity against HCV genotype 1b harboring NS5A Y93H mutant", "assay_type": "functional, organism-based, Hepacivirus hominis"}, "[10]": {"test": "Binding affinity to Hepatitis C virus NS3 assessed as inhibition constant", "design": "species or system Hepacivirus hominis"}, "[11]": {"test": "Binding affinity to Hepatitis C virus NS3 protease (1027 to 1206 residues) expressed in Escherichia coli assessed as inhibition constant", "design": "species or system Hepacivirus hominis"}, "[12]": {"target": "T2, Hepatitis C virus serine protease, NS3/NS4A (Hepatitis C virus, UniProt A3EZI9+D2K2A8)", "T2 sequence (D2K2A8 whole entry)": "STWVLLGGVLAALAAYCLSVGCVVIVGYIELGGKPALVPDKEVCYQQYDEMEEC", "T2 sequence (A3EZI9 whole entry)": "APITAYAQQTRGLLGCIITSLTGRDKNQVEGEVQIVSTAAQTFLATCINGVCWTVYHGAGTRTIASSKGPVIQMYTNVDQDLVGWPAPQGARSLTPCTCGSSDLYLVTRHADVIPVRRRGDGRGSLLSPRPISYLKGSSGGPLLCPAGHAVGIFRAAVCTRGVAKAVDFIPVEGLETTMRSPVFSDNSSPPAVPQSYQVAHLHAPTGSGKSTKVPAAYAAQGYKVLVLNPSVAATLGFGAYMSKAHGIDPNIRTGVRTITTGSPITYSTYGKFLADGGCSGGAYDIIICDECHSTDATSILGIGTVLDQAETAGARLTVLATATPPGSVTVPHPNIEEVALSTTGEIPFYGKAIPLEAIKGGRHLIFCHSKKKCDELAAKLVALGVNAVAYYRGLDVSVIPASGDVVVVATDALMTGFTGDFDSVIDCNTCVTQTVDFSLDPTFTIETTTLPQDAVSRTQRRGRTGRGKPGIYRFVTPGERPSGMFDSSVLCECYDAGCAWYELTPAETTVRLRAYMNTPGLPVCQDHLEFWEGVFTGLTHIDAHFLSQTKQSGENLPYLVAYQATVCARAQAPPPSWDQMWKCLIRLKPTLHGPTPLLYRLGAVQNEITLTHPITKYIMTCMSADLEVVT", "test": "Inhibition of Hepatitis C virus NS3/NS4A protease", "assay_type": "protein-complex assay, Hepacivirus hominis"}, "[13]": {"target": "T2, Hepatitis C virus serine protease, NS3/NS4A", "test": "Inhibition of HCV NS4A-NS3 protease", "assay_type": "protein-complex assay, Hepacivirus hominis"}}, "note": "Square brackets hold non-standard residues; d marks the D form. Peptide text beside a SMILES is read from it. * marks the point of attachment. Dip = N[C@H](C(=O)O)C(c1ccccc1)c1ccccc1; CH2(1-naphthyl) = c1ccc2c(C*)cccc2c1; Abu(4,4-F2) = N[C@@H](CC(F)F)C(=O)O; Hyp = O=C(O)[C@@H]1C[C@@H](O)CN1; Cha = N[C@@H](CC1CCCCC1)C(=O)O; Chg = N[C@H](C(=O)O)C1CCCCC1; Ac3c = NC1(C(=O)O)CC1", "data": [{"compound": "COC(=O)N[C@@H](C(=O)N1CCC[C@H]1c1ncc(-c2ccc(-c3ccc(-c4cnc([C@@H]5CCCN5C(=O)[C@H](NC(=O)OC)c5ccccc5)[nH]4)cc3)cc2)[nH]1)c1ccccc1", "values": [{"measurement": "EC50", "setting": "Hepatitis C virus [1]", "result": 0.028, "unit": "nM"}, {"measurement": "EC50", "setting": "Hepatitis C virus [2]", "result": 0.0067, "unit": "nM"}]}, {"compound": "C=C[C@@H]1C[C@]1(NC(=O)[C@@H]1C[C@@H](Oc2cc(-c3ccccc3)nc3cc(OC)ccc23)CN1C(=O)[C@@H](NC(=O)OC(C)(C)C)C(C)(C)C)C(=O)NS(=O)(=O)C1CC1", "values": [{"measurement": "half-life", "setting": "[3]", "result": 2.83, "unit": "h"}]}, {"compound": "Cn1c(-c2ccccc2)c(C2CCCCC2)c2ccc(C(=O)O)cc21", "values": [{"measurement": "IC50", "setting": "[4]", "result": 120, "unit": "nM"}]}, {"compound": "COc1ccc2c(c1)C=C(C(=O)N1C[C@@H](C)O[C@@H](C)C1)Cn1c-2c(C2CCCCC2)c2ccc(C(=O)NS(=O)(=O)N(C)C)cc21", "values": [{"measurement": "IC50", "setting": "[5]", "result": "> 10000", "unit": "nM"}, {"measurement": "EC50", "setting": "Hepatitis C virus [6]", "result": 40, "unit": "nM"}, {"measurement": "EC50", "setting": "Hepatitis C virus [7]", "result": 40, "unit": "nM"}]}, {"compound": "O=C1N[C@H]2[C@H](CS[C@H]2CCCCC(=O)N2CCC[C@H]2C(=O)Nc2ccc(/C=C/c3ccc(NC(=O)[C@@H]4CCCN4C(=O)Cc4ccccc4)cc3)cc2)N1", "values": [{"measurement": "EC50", "setting": "Hepatitis C virus [1]", "result": 33, "unit": "nM"}, {"measurement": "EC50", "setting": "Hepatitis C virus [2]", "result": "> 10000", "unit": "nM"}, {"measurement": "EC50", "setting": "Hepatitis C virus [8]", "result": "> 10000", "unit": "nM"}]}, {"compound": "C[C@H](NC(=O)Cc1ccccc1)C(=O)Nc1ccc(C2(O)C(=O)N(Cc3ccco3)C(=S)N2c2cccc(F)c2)cc1", "note": "(stereo partly specified)", "values": [{"measurement": "EC50", "setting": "Hepatitis C virus [9]", "result": 43, "unit": "nM"}]}, {"compound": "CC(C)C[C@H](NC(=O)[C@H](CCC(=O)O)NC(=O)OC(C)(C)C)C(=O)NC(CC(F)F)C(=O)C(=O)O", "note": "(stereo partly specified)", "values": [{"measurement": "Ki", "setting": "[10]", "result": 17000, "unit": "nM"}, {"measurement": "Ki", "setting": "[11]", "result": 27, "unit": "nM"}]}, {"compound": "Fc1cccc(NC(=S)NCc2ccco2)c1", "values": [{"measurement": "EC50", "setting": "Hepatitis C virus [9]", "result": 0.6, "unit": "nM"}]}, {"compound": "COc1ccc2c(c1)[C@@H]1C[C@]1(C(=O)N1C[C@@H](C)O[C@@H](C)C1)Cn1c-2c(C2CCCCC2)c2ccc(C(=O)NS(=O)(=O)N(C)C)cc21", "values": [{"measurement": "EC50", "setting": "Hepatitis C virus [6]", "result": 1, "unit": "nM"}, {"measurement": "EC50", "setting": "Hepatitis C virus [7]", "result": 3, "unit": "nM"}]}, {"compound": "CC(=O)N[C@@H](CC(=O)O)C(=O)N[C@@H](CCC(=O)O)C(=O)N[C@H](C(=O)N[C@@H](CCC(=O)O)C(=O)N[C@@H](CC1CCCCC1)C(=O)N[C@@H](CC(F)F)C(=O)O)C(c1ccccc1)c1ccccc1", "note": "(Ac-DE[Dip]E[Cha][Abu(4,4-F2)]-OH)", "values": [{"measurement": "Ki", "setting": "[12]", "result": 3, "unit": "nM"}]}, {"compound": "CC(=O)N[C@H](C(=O)N[C@H](C(=O)N1C[C@H](OCc2cccc3ccccc23)C[C@H]1C(=O)NC1(C(=O)O)CC1)C(C)C)C1CCCCC1", "note": "(Ac-[Chg]V[Hyp](CH2(1-naphthyl))[Ac3c]-OH)", "values": [{"measurement": "IC50", "setting": "[13]", "result": 3500, "unit": "nM"}]}, {"compound": "COc1ccc2c(c1)C1CC1(C(=O)N1C3CCC1CN(C)C3)Cn1c-2c(C2CCCCC2)c2ccc(C(=O)NS(=O)(=O)N(C)C)cc21", "note": "(racemic)", "values": [{"measurement": "EC50", "setting": "Hepatitis C virus [1]", "result": 3, "unit": "nM"}, {"measurement": "EC50", "setting": "Hepatitis C virus [2]", "result": 208, "unit": "nM"}]}, {"compound": "Ac-DEMEEC-OH", "values": [{"measurement": "Ki", "setting": "[10]", "result": 600, "unit": "nM"}]}]}
